These results are taken from patent US12049439B2 (OrsoBio, Inc., priority 2018, dated 2024).

Bounds are passed on as bounds.

The subject of the assay is PC-3 cells. The assay is described as follows: PC-3 Oxygen Rate Consumption (OCR) Assay. In kind it is cell-based. The settings on record: Homo sapiens, 0.05 h, medium with 2% FBS, OCR at 3-min post-injection normalized to % increase over DMSO-treated cells, concentration for half-maximal OCR increase, read-out: EC50-PC3-OCR-FBS-3min. The protocol:
PC-3 Oxygen Rate Consumption (OCR) Assay Procedure:
One day before the assay, PC-3 cells were seeded at 2.5×10^4 cells/160 μL/well in a 96-well XFe96 cell plate, part of a FlexPak containing a cell plate and a cartridge (Agilent, Sunnyvale, CA). The cells were incubated overnight at 37° C. in a 5% CO2 and 90% humidity incubator with F12K culture medium (ThermoFisher Scientific/Invitrogen, Grand Island, NY) containing 10% FBS and 1% penicillin/streptomycin. On the day of the assay, the cells were washed twice with 300 µL/well Medium A [XF assay medium (Agilent) supplemented 10 mM glucose, 1 mM pyruvate, and 2% fetal bovine serum (FBS)], and incubated with 175 µL/well Media A for 1 hr in a 37° C., non-CO2 incubator prior to the measurement of cellular respiration. Compounds of interests were prepared in 1:2 serial dilutions with 100% DMSO and then further diluted into 8× working stock with Media A prior to being loaded to Injection Port A on a XFe96 Analyzer (Agilent). Six replicates were used for each treatment. The cartridge was calibrated in the XFe96 Analyzer 30 minute prior to the measurement of cellular respiration. Basal levels of OCR were measured three times, each using a “3-minute mixing/3-minute measurement” program. The compound effect was measured immediately after compound injection from Injection Port A, and OCR was monitored continuously 10 times, each time using a “1-minute mixing/2-minute measurement” program for a total of 30 minutes post compound injection. The level of OCR at 3-min post-injection was normalized to % increase over DMSO-treated cells. The concentration of compound required to reach the half-maximal OCR increase was defined as EC50 Table 2 contains PC3 OCR EC50 values for the compounds disclosed.
`CC(C)(C)c1ccc(C(=O)NC23CC(C(F)(F)F)(C2)C3)c(NS(=O)(=O)c2ccc(S(C)(=O)=O)cc2)c1` [Example 13, 4-(tert-butyl)-2-((4-(methylsulfonyl)phenyl)sulfonamido)-N-(3-(trifluoromethyl)bicyclo[1.1.1]pentan-1-yl)benzamide]: the EC50 worked out at 5.72 µM. Under `CC(C)(C)c1ccc(C(=O)NC23CC(C#N)(C2)C3)c(NS(=O)(=O)c2ccc(S(C)(=O)=O)cc2)c1` [Example 14, 4-(tert-butyl)-N-(3-cyanobicyclo[1.1.1]pentan-1-yl)-2-((4-(methylsulfonyl)phenyl)sulfonamido)benzamide] stands no less than 20 µM; under `CC(C)(C)c1ccc(C(=O)NC23CC(c4ccccc4)(C2)C3)c(NS(=O)(=O)c2ccc(S(C)(=O)=O)cc2)c1` [Example 15, 4-(tert-butyl)-2-((4-(methylsulfonyl)phenyl)sulfonamido)-N-(3-phenylbicyclo[1.1.1]pentan-1-yl)benzamide], 10.9 µM.

Consider `CC(C)(C)c1ccc(S(=O)(=O)Nc2cc(S(C)(=O)=O)ccc2C(=O)NC23CC(C(F)(F)F)(C2)C3)cc1` [Example 16, 2-((4-(tert-butyl)phenyl)sulfonamido)-4-(methylsulfonyl)-N-(3-(trifluoromethyl)bicyclo[1.1.1]pentan-1-yl)benzamide], for which the concentration giving a half-maximal response (EC50) worked out at 5.55 µM. Regarding `O=C(NC12CC(C(F)(F)F)(C1)C2)c1ccc(C(F)(F)F)cc1NS(=O)(=O)c1ccc(-n2cnnn2)cc1` [Example 17, 2-((4-(1H-tetrazol-1-yl)phenyl)sulfonamido)-4-(trifluoromethyl)-N-(3-(trifluoromethyl)bicyclo[1.1.1]pentan-1-yl)benzamide], the EC50 amounted to 5.83 µM. Under `CS(=O)(=O)c1ccc(S(=O)(=O)Nc2cc(C(F)(F)F)ccc2C(=O)NC23CC(C#N)(C2)C3)cc1` [Example 18, N-(3-cyanobicyclo[1.1.1]pentan-1-yl)-2-((4-(methylsulfonyl)phenyl)sulfonamido)-4-(trifluoromethyl)benzamide] stands 114 µM; under `Cn1cc(S(=O)(=O)Nc2cc(C(F)(F)F)ccc2C(=O)NC23CC(C(F)(F)F)(C2)C3)cn1` [Example 19, 2-((1-methyl-1H-pyrazole)-4-sulfonamido)-4-(trifluoromethyl)-N-(3-(trifluoromethyl)bicyclo[1.1.1]pentan-1-yl)benzamide], 6.41 µM.

Take `CS(=O)(=O)c1ccc(S(=O)(=O)Nc2cc(C(F)(F)F)ccc2C(=O)NC23CC(F)(C2)C3)cc1` [Example 20, N-(3-fluorobicyclo[1.1.1]pentan-1-yl)-2-((4-(methylsulfonyl)phenyl)sulfonamido)-4-(trifluoromethyl)benzamide]: the EC50 was 14.3 µM. Turning to `CS(=O)(=O)c1ccc(S(=O)(=O)Nc2cc(F)ccc2C(=O)NC23CC(F)(C2)C3)cc1` [Example 21, 4-fluoro-N-(3-fluorobicyclo[1.1.1]pentan-1-yl)-2-((4-(methylsulfonyl)phenyl)sulfonamido)benzamide], the half-maximal effective concentration (EC50) is 38.9 µM.

As to `CS(=O)(=O)c1cccc(S(=O)(=O)Nc2cc(F)ccc2C(=O)NC23CC(C(F)(F)F)(C2)C3)c1` [Example 22, 4-fluoro-2-((3-(methylsulfonyl)phenyl)sulfonamido)-N-(3-(trifluoromethyl)bicyclo[1.1.1]pentan-1-yl)benzamide], the EC50 was found to be 9.97 µM. On to `CS(=O)(=O)c1ccc(S(=O)(=O)Nc2cc(C(F)(F)F)ccc2C(=O)NC23CC(C2)C3)cc1` [Example 23, N-(bicyclo[1.1.1]pentan-1-yl)-2-((4-(methylsulfonyl)phenyl)sulfonamido)-4-(trifluoromethyl)benzamide], for which the EC50 stood at 12 µM. With `CCS(=O)(=O)c1ccc(S(=O)(=O)Nc2cc(C(F)(F)F)ccc2C(=O)NC23CC(C(F)(F)F)(C2)C3)cc1` [Example 24, 2-((4-(ethylsulfonyl)phenyl)sulfonamido)-4-(trifluoromethyl)-N-(3-(trifluoromethyl)bicyclo[1.1.1]pentan-1-yl)benzamide] the figure was 3.32 µM; with `CCS(=O)(=O)c1ccc(S(=O)(=O)Nc2cc(C(F)(F)F)ccc2C(=O)NC23CC(C#N)(C2)C3)cc1` [Example 25, N-(3-cyanobicyclo[1.1.1]pentan-1-yl)-2-((4-(ethylsulfonyl)phenyl)sulfonamido)-4-(trifluoromethyl)benzamide], no less than 50 µM; with `CCS(=O)(=O)c1ccc(S(=O)(=O)Nc2cc(C(F)(F)F)ccc2C(=O)NC23CC(F)(C2)C3)cc1` [Example 26, 2-((4-(ethylsulfonyl)phenyl)sulfonamido)-N-(3-fluorobicyclo[1.1.1]pentan-1-yl)-4-(trifluoromethyl)benzamide], 6.94 µM. For `CCS(=O)(=O)c1ccc(S(=O)(=O)Nc2cc(C(F)(F)F)ccc2C(=O)NC23CC(C2)C3)cc1` [Example 27, N-(bicyclo[1.1.1]pentan-1-yl)-2-((4-(ethylsulfonyl)phenyl)sulfonamido)-4-(trifluoromethyl)benzamide], the EC50 is 4.5 µM. Under `O=C(NC12CC(C(F)(F)F)(C1)C2)c1ccc(F)cc1NS(=O)(=O)c1ccc(S(=O)(=O)C2CC2)cc1` [Example 28, 2-((4-(cyclopropylsulfonyl)phenyl)sulfonamido)-4-fluoro-N-(3-(trifluoromethyl)bicyclo[1.1.1]pentan-1-yl)benzamide] stands 2.76 µM. With `O=C(NC12CC(C(F)(F)F)(C1)C2)c1ccc(C(F)(F)F)cc1NS(=O)(=O)c1ccc(N2CCCS2(=O)=O)cc1` [Example 29, 2-((4-(1,1-dioxidoisothiazolidin-2-yl)phenyl)sulfonamido)-4-(trifluoromethyl)-N-(3-(trifluoromethyl)bicyclo[1.1.1]pentan-1-yl)benzamide] the figure was 8.8 µM. Under `CN(C)S(=O)(=O)c1ccc(S(=O)(=O)Nc2cc(C(F)(F)F)ccc2C(=O)NC23CC(c4ccccc4)(C2)C3)cc1` [Example 30, 2-((4-(N,N-dimethylsulfamoyl)phenyl)sulfonamido)-N-(3-phenylbicyclo[1.1.1]pentan-1-yl)-4-(trifluoromethyl)benzamide] stands 1.11 µM; under `O=C(NC12CC(c3ccccc3)(C1)C2)c1ccc(C(F)(F)F)cc1NS(=O)(=O)c1ccc(OC(F)(F)F)cc1` [Example 31, N-(3-phenylbicyclo[1.1.1]pentan-1-yl)-2-((4-(trifluoromethoxy)phenyl)sulfonamido)-4-(trifluoromethyl)benzamide], 0.595 µM; under `N#CC12CC(NC(=O)c3ccc(C(F)(F)F)cc3NS(=O)(=O)c3ccc(OC(F)(F)F)cc3)(C1)C2` [Example 32, N-(3-cyanobicyclo[1.1.1]pentan-1-yl)-2-((4-(trifluoromethoxy)phenyl)sulfonamido)-4-(trifluoromethyl)benzamide], 1.52 µM. For `O=C(NC12CC(C(F)(F)F)(C1)C2)c1ccc(C(F)(F)F)cc1NS(=O)(=O)c1ccc(S(=O)(=O)C(F)(F)F)cc1` [Example 33, 4-(trifluoromethyl)-N-(3-(trifluoromethyl)bicyclo[1.1.1]pentan-1-yl)-2-((4-((trifluoromethyl)sulfonyl)phenyl)sulfonamido)benzamide], the half-maximal effective concentration (EC50) stood at 1.93 µM. With `O=C(NC12CC(C(F)(F)F)(C1)C2)c1ccc(C(F)(F)F)cc1NS(=O)(=O)c1ccc(S(=O)(=O)C(F)F)cc1` [Example 34, 2-((4-((difluoromethyl)sulfonyl)phenyl)sulfonamido)-4-(trifluoromethyl)-N-(3-(trifluoromethyl)bicyclo[1.1.1]pentan-1-yl)benzamide] the figure was 2.71 µM; with `N#CC12CC(NC(=O)c3ccc(C(F)(F)F)cc3NS(=O)(=O)c3ccc4ccccc4c3)(C1)C2` [Example 35, N-(3-cyanobicyclo[1.1.1]pentan-1-yl)-2-(naphthalene-2-sulfonamido)-4-(trifluoromethyl)benzamide], 1.21 µM; with `O=C(NC12CC(c3ccccc3)(C1)C2)c1ccccc1NS(=O)(=O)c1ccc(-n2ccnc2)cc1` [Example 36, 2-((4-(1H-imidazol-1-yl)phenyl)sulfonamido)-N-(3-phenylbicyclo[1.1.1]pentan-1-yl)benzamide], no less than 20 µM. On to `O=C(NC12CC(C1)C2)c1ccc(C(F)(F)F)cc1NS(=O)(=O)c1ccccc1` [Example 37, N-(bicyclo[1.1.1]pentan-1-yl)-2-(phenylsulfonamido)-4-(trifluoromethyl)benzamide], for which the EC50 turned out to be 2.1 µM. Under `O=C(NC12CC(C(F)(F)F)(C1)C2)c1ccc(C(F)(F)F)cc1NS(=O)(=O)c1ccccc1` [Example 38, 2-(phenylsulfonamido)-4-(trifluoromethyl)-N-(3-(trifluoromethyl)bicyclo[1.1.1]pentan-1-yl)benzamide] stands 0.478 µM; under `Cn1cc(S(=O)(=O)Nc2cc(C(F)(F)F)ccc2C(=O)NC23CC(c4ccccc4)(C2)C3)cn1` [Example 39, 2-((1-methyl-1H-pyrazole)-4-sulfonamido)-N-(3-phenylbicyclo[1.1.1]pentan-1-yl)-4-(trifluoromethyl)benzamide], 7.34 µM.
